Earlier results as cited in patent US20180162913A1, “METHODS FOR PO[…] IMMUNE RESPONSE USING DEPOT-FORMING AND NON-DEPOT-FORMING VACCINES” (IMMUNOVACCINE TECHNOLOGIES INC., priority 2015, published 2018).

## O=P1(N(CCCl)CCCl)NCCCO1 (stereo not drawn) [Cyclophosphamide (CPA), N,N-bis(2-chloroethyl)-1,3,2-oxazaphosphinan-2-amine 2-oxide]
In vivo
  bioavailability, intravenous infusion versus parenteral and oral administration: little difference in bioavailability
patients
  Total systemic clearance of CPA and its metabolites: 5 to 9 h
  peak plasma levels of the parent, variation between patients: 3 to 11 h
